Results as given in ChEMBL document CHEMBL5257096, “Accelerating Drug Discovery: Synthesis of Complex Chemotypes via Multicomponent Reactions” (ACS Med Chem Lett, 2023).

Target: Isocitrate dehydrogenase [NADP] cytoplasmic (Homo sapiens, UniProt O75874, R132H)
Experiment: Inhibition of IDH1 R132H mutant (unknown origin)

Sequence of Isocitrate dehydrogenase [NADP] cytoplasmic (O75874 2-414 R132H limits assumed): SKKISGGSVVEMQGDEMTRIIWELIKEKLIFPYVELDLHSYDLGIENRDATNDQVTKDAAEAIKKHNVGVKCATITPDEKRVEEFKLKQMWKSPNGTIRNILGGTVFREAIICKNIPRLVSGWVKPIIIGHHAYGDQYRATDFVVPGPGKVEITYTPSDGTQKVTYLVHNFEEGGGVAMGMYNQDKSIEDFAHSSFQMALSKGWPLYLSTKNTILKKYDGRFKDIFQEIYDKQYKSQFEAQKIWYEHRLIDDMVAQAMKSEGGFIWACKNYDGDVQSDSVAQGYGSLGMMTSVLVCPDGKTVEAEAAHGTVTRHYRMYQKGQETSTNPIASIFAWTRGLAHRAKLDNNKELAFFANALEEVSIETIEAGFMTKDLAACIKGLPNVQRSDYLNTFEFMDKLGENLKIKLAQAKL

- IC50: > 11 µM
Compound: O=C(NC1CCCCC1)[C@@H](c1ccccc1)N(C(=O)Cc1cccs1)c1cccc(F)c1
